Results from BigSolDB 2.1.

CC(C)[C@H](NC(=O)OCC1c2ccccc2-c2ccccc21)C(=O)O
solubility (mole fraction)
Settings | 283.15 K | 288.15 K | 293.15 K | 298.15 K | 303.15 K | 308.15 K | 313.15 K | 318.15 K | 323.15 K
in 2-butanone | 0.0403 | 0.0448 | 0.0509 | 0.057 | 0.0632 | 0.0699 | 0.0793 | 0.0902 | 0.102
in acetone | 0.0449 | 0.0504 | 0.0568 | 0.0627 | 0.0707 | 0.0792 | 0.0915 | 0.104 | 0.121
in acetonitrile | 0.00264 | 0.00327 | 0.00399 | 0.00477 | 0.00577 | 0.00703 | 0.00867 | 0.0105 | 0.0128
in dimethyl carbonate | 0.0073 | 0.00766 | 0.00901 | 0.0108 | 0.0131 | 0.016 | 0.0196 | 0.0235 | 0.0294
in ethanol | 0.0177 | 0.0243 | 0.0261 | 0.0312 | 0.0373 | 0.0462 | 0.057 | 0.0714 | 0.0877
in isobutanol | 0.00967 | 0.0112 | 0.0127 | 0.0152 | 0.0186 | 0.0236 | 0.0296 | 0.0366 | 0.0541
in isopentanol | 0.0103 | 0.0129 | 0.0159 | 0.0192 | 0.0231 | 0.0286 | 0.0351 | 0.0429 | 0.0552
in isopropanol | 0.0105 | 0.0133 | 0.0161 | 0.0204 | 0.0271 | 0.0352 | 0.0448 | 0.0533 | 0.071
in methanol | 0.0238 | 0.0259 | 0.0321 | 0.0396 | 0.0468 | 0.0571 | 0.0694 | 0.0846 | 0.0985
in n-butanol | 0.0155 | 0.019 | 0.0216 | 0.0244 | 0.0287 | 0.0351 | 0.0434 | 0.0536 | 0.0728
in n-butyl acetate | 0.0143 | 0.0162 | 0.0184 | 0.0209 | 0.0234 | 0.0273 | 0.0314 | 0.0362 | 0.0417
in n-pentanol | 0.016 | 0.0172 | 0.0199 | 0.0233 | 0.0281 | 0.0344 | 0.0417 | 0.0495 | 0.0582
in n-propanol | 0.0141 | 0.0169 | 0.0199 | 0.0227 | 0.0319 | 0.0398 | 0.0481 | 0.057 | 0.0742
in sec-butanol | 0.016 | 0.0174 | 0.0222 | 0.0275 | 0.0349 | 0.0435 | 0.0549 | 0.0653 | 0.0801
